In patent US6855843B2, “Inhibitors of α4 mediated cell adhesion” (Tanabe Seiyaku Co., Ltd., priority 1998, dated 2005):

biological target: T1, α4β7 (adhesion of RPMI cells to CS-1) (Homo sapiens, UniProt P13612+P26010); experiment: RPMI-CS-1 cell adhesion assay; format: cell-based; settings: adhesion of RPMI B-cell line (expresses α4β7) to CS-1 peptide coated microwells; read-out: RPMI-CS-1 IC50 value range
T1 construct: endogenous in cells
T1 sequence (P13612 34-1032): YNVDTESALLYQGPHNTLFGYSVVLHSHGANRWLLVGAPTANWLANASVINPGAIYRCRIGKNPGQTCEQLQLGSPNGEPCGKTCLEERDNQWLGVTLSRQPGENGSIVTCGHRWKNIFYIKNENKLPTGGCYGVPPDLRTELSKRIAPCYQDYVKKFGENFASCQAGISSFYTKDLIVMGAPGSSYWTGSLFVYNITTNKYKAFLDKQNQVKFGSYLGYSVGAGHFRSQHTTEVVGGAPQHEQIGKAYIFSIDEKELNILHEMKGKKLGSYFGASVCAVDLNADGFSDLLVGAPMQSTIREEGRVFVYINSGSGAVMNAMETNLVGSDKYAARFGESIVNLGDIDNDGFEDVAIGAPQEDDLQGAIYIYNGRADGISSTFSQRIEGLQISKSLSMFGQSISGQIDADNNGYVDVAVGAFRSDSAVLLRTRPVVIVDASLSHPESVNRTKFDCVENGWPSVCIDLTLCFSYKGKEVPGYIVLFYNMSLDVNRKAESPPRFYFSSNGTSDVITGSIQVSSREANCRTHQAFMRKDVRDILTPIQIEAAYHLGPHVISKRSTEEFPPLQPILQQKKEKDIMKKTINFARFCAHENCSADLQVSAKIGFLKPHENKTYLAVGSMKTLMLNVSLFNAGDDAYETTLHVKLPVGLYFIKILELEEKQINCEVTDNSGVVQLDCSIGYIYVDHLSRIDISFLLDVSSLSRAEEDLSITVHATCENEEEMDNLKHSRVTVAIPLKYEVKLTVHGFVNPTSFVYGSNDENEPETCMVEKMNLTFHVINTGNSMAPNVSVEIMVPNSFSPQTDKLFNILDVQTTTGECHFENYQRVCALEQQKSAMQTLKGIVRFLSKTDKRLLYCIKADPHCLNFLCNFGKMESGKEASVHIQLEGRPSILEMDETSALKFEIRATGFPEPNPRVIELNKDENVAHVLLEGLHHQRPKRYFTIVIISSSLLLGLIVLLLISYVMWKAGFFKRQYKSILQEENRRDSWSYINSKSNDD
T1 sequence (P26010 20-798): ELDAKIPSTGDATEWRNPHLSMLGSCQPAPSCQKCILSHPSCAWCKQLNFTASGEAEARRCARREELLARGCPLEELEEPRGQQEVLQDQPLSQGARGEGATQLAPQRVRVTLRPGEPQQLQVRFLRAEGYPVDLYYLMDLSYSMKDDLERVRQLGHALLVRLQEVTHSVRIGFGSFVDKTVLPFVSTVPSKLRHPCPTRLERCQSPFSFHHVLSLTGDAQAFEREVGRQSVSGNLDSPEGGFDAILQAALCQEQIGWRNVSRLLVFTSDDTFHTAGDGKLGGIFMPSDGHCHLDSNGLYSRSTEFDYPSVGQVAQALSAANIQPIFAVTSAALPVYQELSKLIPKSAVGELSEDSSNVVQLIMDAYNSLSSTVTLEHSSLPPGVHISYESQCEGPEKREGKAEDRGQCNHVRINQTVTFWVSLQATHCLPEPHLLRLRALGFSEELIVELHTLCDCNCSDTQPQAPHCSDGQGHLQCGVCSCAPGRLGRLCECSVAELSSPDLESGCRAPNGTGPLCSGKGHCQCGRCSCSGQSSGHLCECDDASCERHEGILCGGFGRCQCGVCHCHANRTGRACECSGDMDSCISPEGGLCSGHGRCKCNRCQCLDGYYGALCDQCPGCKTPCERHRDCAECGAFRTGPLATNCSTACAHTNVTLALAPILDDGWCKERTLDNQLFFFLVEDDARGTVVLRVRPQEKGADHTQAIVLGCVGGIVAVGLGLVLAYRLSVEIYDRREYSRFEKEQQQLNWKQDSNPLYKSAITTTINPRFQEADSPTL

Structure (SMILES) | IC50 [µM]
O=C(N[C@@H](Cc1ccc(-c2ccccc2)cc1)C(=O)O)c1ccc(F)cc1Cl [Example 109] | > 5
O=C(N[C@@H](Cc1ccc(-c2ccccc2)cc1)C(=O)O)c1ccccc1[N+](=O)[O-] [Example 110] | > 5
O=C(N[C@@H](Cc1ccc(-c2ccccc2)cc1)C(=O)O)c1c(Cl)cccc1Cl [Example 111] | 1 to 5
Cc1ccccc1-c1ccc(C[C@H](NC(=O)c2c(Cl)cccc2Cl)C(=O)O)cc1 [Example 112] | 0.3 to 1
COC(=O)[C@H](Cc1ccc(-c2ccccc2CNCc2ccccc2)cc1)NC(=O)c1c(Cl)cccc1Cl [Example 114] | 0.3 to 1
COC(=O)[C@H](Cc1ccc(-c2ccccc2CNc2ccccn2)cc1)NC(=O)c1c(Cl)cccc1Cl [Example 115] | 1 to 5
COC(=O)[C@H](Cc1ccc(-c2ccccc2CNc2cccnc2)cc1)NC(=O)c1c(Cl)cccc1Cl [Example 116] | 1 to 5
Cc1ccc(-c2ccc(C[C@H](NC(=O)c3c(Cl)cccc3Cl)C(=O)O)cc2)cc1 [Example 117] | 1 to 5
COc1ccc(-c2ccc(C[C@H](NC(=O)c3c(Cl)cccc3Cl)C(=O)O)cc2)cc1 [Example 118] | 1 to 5
COc1cccc(-c2ccc(C[C@H](NC(=O)c3c(Cl)cccc3Cl)C(=O)O)cc2)c1 [Example 119] | > 5
CCOc1cccc(-c2ccc(C[C@H](NC(=O)c3c(Cl)cccc3Cl)C(=O)O)cc2)c1 [Example 120] | > 5
Nc1cccc(-c2ccc(C[C@H](NC(=O)c3c(Cl)cccc3Cl)C(=O)O)cc2)c1 [Example 122] | 1 to 5
CS(=O)(=O)Nc1cccc(-c2ccc(C[C@H](NC(=O)c3c(Cl)cccc3Cl)C(=O)O)cc2)c1 [Example 123] | 1 to 5
CC(=O)Nc1cccc(-c2ccc(C[C@H](NC(=O)c3c(Cl)cccc3Cl)C(=O)O)cc2)c1 [Example 124] | 1 to 5
COC(=O)Nc1cccc(-c2ccc(C[C@H](NC(=O)c3c(Cl)cccc3Cl)C(=O)O)cc2)c1 [Example 125] | 1 to 5
CCCCCC(=O)Nc1cccc(-c2ccc(C[C@H](NC(=O)c3c(Cl)cccc3Cl)C(=O)O)cc2)c1 [Example 126] | 1 to 5
COC(=O)[C@H](Cc1ccc(-c2cccnc2)cc1)NC(=O)c1c(Cl)cccc1Cl [Example 127] | > 5
O=C(N[C@@H](Cc1ccc(-c2ccsc2)cc1)C(=O)O)c1c(Cl)cccc1Cl [Example 128] | 0.3 to 1
O=C(N[C@@H](Cc1ccc(-c2cccnc2)cc1)C(=O)O)c1c(Cl)cccc1Cl [Example 129] | 1 to 5
O=C(N[C@@H](Cc1ccc(-c2cc3ccccc3o2)cc1)C(=O)O)c1c(Cl)cccc1Cl [Example 130] | > 5
COc1cccc(OC)c1-c1ccc(C[C@H](NC(=O)c2c(Cl)cccc2Cl)C(=O)O)cc1C(C)O (stereo partly shown) [Example 131] | < 0.3
CCN(CC)Cc1cc(OC)c(-c2ccc(C[C@H](NC(=O)c3c(Cl)cccc3Cl)C(=O)O)cc2)c(OC)c1 [Example 132] | < 0.3

Structure (SMILES) | IC50 [µM]
COc1cc(CN2CCOCC2)cc(OC)c1-c1ccc(C[C@H](NC(=O)c2c(Cl)cccc2Cl)C(=O)O)cc1 [Example 133] | < 0.3
COc1cc(CN2CCSCC2)cc(OC)c1-c1ccc(C[C@H](NC(=O)c2c(Cl)cccc2Cl)C(=O)O)cc1 [Example 134] | < 0.3
O=C(N[C@@H](Cc1ccc(-c2c(F)cccc2F)cc1)C(=O)O)c1c(Cl)cccc1Cl [Example 135, N-(2,6-Dichlorobenzoyl)-4-(2,6-difluorophenyl)-L-phenylalanine] | < 0.3
COc1sccc1-c1ccc(C[C@H](NC(=O)c2c(Cl)cccc2Cl)C(=O)O)cc1 [Example 136] | 0.3 to 1
O=C(N[C@@H](Cc1ccc(-c2ccccn2)cc1)C(=O)O)c1c(Cl)cccc1Cl [Example 137] | 0.3 to 1
N#Cc1ccccc1-c1ccc(C[C@H](NC(=O)c2c(Cl)cccc2Cl)C(=O)O)cc1 [Example 138] | < 0.3
COc1cc(F)c(-c2ccc(C[C@H](NC(=O)c3c(Cl)cccc3Cl)C(=O)O)cc2)c(OC)c1 [Example 139] | < 0.3
O=C(N[C@@H](Cc1ccc(-c2c(Cl)cccc2Cl)cc1)C(=O)O)c1c(Cl)cccc1Cl [Example 141] | 0.3 to 1
COc1cc(C#N)c(-c2ccc(C[C@H](NC(=O)c3c(Cl)cccc3Cl)C(=O)O)cc2)c(OC)c1 [Example 142] | < 0.3
CSc1ccccc1-c1ccc(C[C@H](NC(=O)c2c(Cl)cccc2Cl)C(=O)O)cc1 [Example 143] | < 0.3
COc1ncnc(OC)c1-c1ccc(C[C@H](NC(=O)c2c(Cl)cccc2Cl)C(=O)O)cc1 [Example 144] | < 0.3
CS(=O)(=O)c1ccccc1-c1ccc(C[C@H](NC(=O)c2c(Cl)cccc2Cl)C(=O)O)cc1 [Example 152B, N-(2,6-Dichlorobenzoyl)-4-[2-(methylsulfonyl)phenyl]-L-phenyl-alanine] | < 0.3
COc1c(F)cc(F)c(OC)c1-c1ccc(C[C@H](NC(=O)c2c(Cl)cccc2Cl)C(=O)O)cc1 [Example 153B, N-(2,6-dichlorobenzoyl)-4-(2,6-dimethoxy-3,5-difluorophenyl)-L-phenylalanine] | < 0.3
COc1c(F)cc2c(c1-c1ccc(C[C@H](NC(=O)c3c(Cl)cccc3Cl)C(=O)O)cc1)OCO2 [Example 154, N-(2,6-Dichlorobenzoyl)-4-(2,3-methylenedioxy-5-fluoro-6-methoxyphenyl)-L-phenylalanine] | < 0.3
COc1cc(N(C)C)cc(OC)c1-c1ccc(C[C@H](NC(=O)c2c(Cl)cccc2Cl)C(=O)O)cc1 [Example 164, N-(2,6-Dichlorobenzoyl)-4-[2,6-dimethoxy-4-(dimethylamino)phenyl]-L-phenylalanine] | < 0.3
COc1ccccc1-c1ccc(C[C@H](NC(=O)c2ccc(C(=O)OC(C)(C)C)cc2Cl)C(=O)O)cc1 [Example 176, N-[2-Chloro-4-(tert-butoxycarbonyl)benzoyl]-4-(2-methoxyphenyl)-L-phenylalanine] | 0.3 to 1
COc1ccccc1-c1ccc(C[C@H](NC(=O)c2ccc(C(=O)O)cc2Cl)C(=O)O)cc1 [Example 177, N-[2-Chloro-4-carboxybenzoyl]-4-(2-methoxyphenyl)-L-phenylalanine] | < 0.3
COc1ccccc1-c1ccc(C[C@H](NC(=O)c2ccc(C(N)=O)cc2Cl)C(=O)O)cc1 [Example 178, N-[2-Chloro-4-carbamoylbenzoyl]-4-(2-methoxyphenyl)-L-phenylalanine] | < 0.3
COc1ccccc1-c1ccc(C[C@H](NC(=O)c2ccc(C(=O)NS(C)(=O)=O)cc2Cl)C(=O)O)cc1 [Example 179, N-[2-Chloro-4-[N-(methanesulfonyl)carbamoyl]-benzoyl]-4-(2-methoxyphenyl)-L-phenylalanine] | < 0.3
COc1ccccc1-c1ccc(C[C@H](NC(=O)c2cc(NS(=O)(=O)C(F)(F)F)ccc2Cl)C(=O)O)cc1 [Example 180, N-[2-Chloro-5-[(trifluoromethanesulfonyl)amino]-benzoyl]-4-(2-methoxyphenyl)-L-phenylalanine] | < 0.3
COc1ccccc1-c1ccc(C[C@H](NC(=O)c2cccc(NS(=O)(=O)C(F)(F)F)c2Cl)C(=O)O)cc1 [Example 181, N-[2-Chloro-3-[(trifluoromethanesulfonyl)amino]-benzoyl]-4-(2-methoxyphenyl)-L-phenylalanine] | 0.3 to 1
